According to patent US20240226234A1, “WNT5A PEPTIDES FOR THE TREATMENT OF ACUTE M[…]” (W[…], priority 2021, published 2024):
No end group written: not given here. *: point of attachment. For = O=C*

Key:
U937 cells = assay: Cell cycle assay, U937 cells; type: cell-based, human; settings: 72 h
Description: (§1) A panel of human myeloid leukemia cell lines (HL60, K562, KG1a, THP1 and U937) and HS-5 mesenchymal stromal cells lineage were cultured in Roswell Park Memorial Institute medium-1640 (RPMI; Sigma) containing 10% Fetal Bovine Serum (Gibco), glutamine (2 mM; Sigma), penicillin (100 μg/mL; Sigma), streptomycin (100 μg/mL; Sigma), and amphotericin B (0.25 μg/mL; Gibco). The cells were maintained in a humidified atmosphere at 37° C. and 5% CO2 and the experiments were performed when they reached exponential growth. For the assays, cells were seeded on a 24-well plate and treated or not with Foxy-5 for 72 hours.
Cells treated with Foxy or with vehicle were collected and fixed, at least, 24 hours in 70% ethanol. DNA was stained with a buffer containing iodide propidium (20 μg/mL; Sigma) and RNase A (10 μg/mL; Sigma). Cell fluorescence was detected with a FACSCalibur flow cytometer (BD). The proportions of cells in the cell cycle phases were analyzed by Modifit (Verify Software House Inc), according to DNA distributions.
As we observed a reduction in the leukemic proliferation after Foxy-5 treatment, we also analyzed the cell cycle phases. Leukemia cell lines were treated for 72 hours with Foxy-5, at doses of 50 μM and 100 μM, or vehicle, stained with the Piper buffer containing RNAse and iodeto propidium and then analyzed by flow cytometry.

HL60 cells [1] = assay: Transwell chemotaxis assay toward CXCL12, HL60 cells; type: cell-based, human; settings: HL60, Foxy-5 100 μM 72 h pretreatment, CXCL12 100 ng/mL, 24 h
Description: Leukemic cell lines, pretreated or not with Foxy-5 (72 hours of stimulation) were tested for chemotaxis in Transwell-based assays for Chemotaxis (6.5 mm diameter, 8 μm pore size; Corning). Polycarbonate membranes were incubated with poly-L-lysine (1 mg/mL) for 1 hour at 37° C. followed by saline buffer washing. Briefly, cells were collected, washed with media containing bovine serum albumin (0.1% BSA; Sigma), and then seeded at a density of 5×10^5 cells into the upper chamber of the transwell. The lower chamber was filled with media containing 0.5% BSA (negative control), media containing 10% FBS (positive control) and media 5 containing 0.5% BSA with CXCL12 (100 ng/ml; Peprotech) (Melo et al., 2014). Following 6 h or 24 h of incubation at 37° C., cells that migrated into the lower chamber were collected, centrifuged, resuspended in saline buffer and counted. The number of migrated cells was expressed as a percentage of the input, i.e., the cells number applied directly to the lower compartment in parallel wells. The migration of cells was normalized to 100%+/−standard deviation (SD) of triplicates (Favaro et al., 2013).
We investigated whether restoring of WNT5A could enable the modulation CXCL12-induced chemotaxis of leukemia cells. […]

THP1 cells = assay: Actin polymerization assay, THP1 cells; type: cell-based, human; settings: THP1, Foxy-5 100 μM 72 h
Description: F-actin polymerization was analyzed in treated leukemic cell lines using AlexaFluor 633-labeled phalloidin (A22284, Invitrogen) before and after CXCL12 stimulation. The cells were stimulated with CXCL12 (300 ng/ml; Peprotech) in serum-free media at 37 °C for 30 and 120 seconds. The reaction was stopped by adding 3 volumes of paraformaldehyde (3.7%) at room temperature for 10 min, then washed and permeabilized on ice. Cells were stained with 633-phalloidin (2 mg/mL). Flow cytometric data were analyzed using a FACS flow cytometer (BD) followed by FlowJo software analysis. The F-actin content obtained were normalized calculating the ratio between each stimulated cells-mean fluorescence intensity (MFI) values and the nonstimulated cells MFI from the basal levels of the control cells and expressed as fold change.
Therefore, we performed a flow cytometry analysis to evaluate whether Foxy-5 treatment would be able to disrupt actin polymerization. Leukemia cell lines were treated with Foxy-5 (100 μM) or vehicle during 72 hours, stimulated with CXCL12 (300 ng/ml) for 30 or 120 seconds, and stained with […] for detection of actin polymerization by flow cytometry. […] Thus, a significant reduction of actin polymerization was shown after Foxy-5 treatment when compared to untreated cells after 30 seconds of CXCL12 induction (P<. 001).

HL60 cells [2] = assay: Autophagy assay (acridine orange), HL60 cells; type: cell-based, human; settings: HL60, 2D culture, 72 h
Description: as §1
(§2) Cells treated with Foxy or with vehicle were collected and acids vesicles were measured by flow cytometry following staining with Acridine Orange (0.01 mg/mL; Sigma). Acquisition of cells was performed on a FACScalibur flow cytometer (BD) and analysis was carried out using the FlowJo software 4.
(§3) As autophagy is required for sustaining leukemia cell growth by induction of ROS production, we measured the levels of acidic granule formation by flow cytometry after Foxy-5 or vehicle treatment. […]

K562 cells = assay: Autophagy assay (acridine orange), K562 cells; type: cell-based, human; settings: K562, 2D culture, 72 h
Description: as §1, §2, §3

[3] = NOD/SCID mice, U937 xenograft, Foxy-5 vs vehicle, after 9 days
Description: For the xenograft mouse model, a concentration of 40 μg/μL of Foxy-5 was used. […] Mice were anesthetized with isoflurane (4%) and U937 cells (5,000,000 cells/mouse) were inoculated in the mouse dorsal region by subcutaneous injection. When the tumours reached 100 mm^3, the treatment was initiated. Foxy-5 was administered once every 2 days by intraperitoneal injection. The control group received equal amounts of vehicle solution. The tumour volumes were measured every 2 days and evaluated according to the formula: tumour volume (mm^3) ¼ (length×width^2)/2. After 9 days, the mice were sacrificed, the tumour excised and tumour dimensions (tumour volume (mm^3) and tumour weight (grams, g)) were evaluated.

Foxy-5: Formylated hexapeptide fragment of WNT5A: MDGCEL (SEQ. ID. NO. 3) with methionine in position 1 as N-formyl methionine; WNT5A-mimicking compound (For-MDGCEL; listed as Homo sapiens)
cells in G0/G1 cell cycle phase (average) (U937 cells; U937, co-cultured with HS5 stromal cells, Foxy-5 50 μM): 77.37%
cells in G0/G1 cell cycle phase (average) (U937 cells; U937, co-cultured with HS5 stromal cells, Foxy-5 100 μM): 91.52%
cells in G0/G1 cell cycle phase (average) (U937 cells; U937, monoculture, Foxy-5 50 μM): 55.07%
cells in G0/G1 cell cycle phase (average) (U937 cells; U937, monoculture, Foxy-5 100 μM): 56.64%
CXCL12-induced chemotaxis (migrated cells as percentage of the input, average) (HL60 cells [1]): 4.31%
F-actin content following CXCL12 stimulation (THP1 cells; CXCL12 300 ng/ml for 30 seconds): 3.56 fold increase
F-actin content following CXCL12 stimulation (THP1 cells; CXCL12 300 ng/ml for 120 seconds): 1.59 fold
autophagy (acidic granule formation, acridine orange, average) (HL60 cells [2]; Foxy-5 50 μM): 10.04 (range 7.20-11.93) MFI
autophagy (acidic granule formation, acridine orange, average) (HL60 cells [2]; Foxy-5 100 μM): 6.60 (range 5.42-6.69) MFI
autophagy (acidic granule formation, acridine orange, average) (K562 cells; Foxy-5 50 μM): 21.32 (range 20.46-22.28) MFI
autophagy (acidic granule formation, acridine orange, average) (K562 cells; Foxy-5 100 μM): 19.80 (range 19.70-20.40) MFI
body weights of the xenograft mice [3]: did not vary significantly
